“And” between values parts separate entries of the source, which are not always exact repeats. Equal entries are not always repeated. Inconclusive results and toxic doses are left out. How the source made its calls: active means survival T/C of 150% or more; inactive means T/C below 125% in these data.
Tested on: CD2F1 mice, L1210 leukemia ip, survival T/C
Assay: NCI In Vivo Anticancer Drug Screen. Data for tumor model L1210 Leukemia (intraperitoneal) in CD2F1 (CDF1) mice
Settings: higher = longer survival
Outline: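 Compound-dosed mice with transplantable tumor versus matched vehicle controls; endpoint ratio T/C reported.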

[1] = endpoint: mean survival time, dose: 25.0 mg/kg/injection, schedule: Q01DX009 (ip), vehicle: other
[2] = endpoint: mean survival time, dose: 100.0 mg/kg/injection, schedule: Q01DX009 (ip), vehicle: other
[3] = endpoint: mean survival time, dose: 12.5 mg/kg/injection, schedule: Q01DX009 (ip), vehicle: saline with Tween-80
[4] = endpoint: mean survival time, dose: 25.0 mg/kg/injection, schedule: Q01DX009 (ip), vehicle: saline with Tween-80
[5] = endpoint: mean survival time, dose: 100.0 mg/kg/injection, schedule: Q04DX003 (ip), vehicle: saline with Tween-80
[6] = endpoint: mean survival time, dose: 50.0 mg/kg/injection, schedule: Q01DX009 (ip), vehicle: saline with Tween-80
[7] = endpoint: mean survival time, dose: 100.0 mg/kg/injection, schedule: Q01DX009 (ip), vehicle: saline with Tween-80
[8] = endpoint: mean survival time, dose: 200.0 mg/kg/injection, schedule: Q01DX009 (ip), vehicle: saline with Tween-80
[9] = endpoint: mean survival time, dose: 50.0 mg/kg/injection, schedule: Q04DX003 (ip), vehicle: saline with Tween-80
[10] = endpoint: mean survival time, dose: 200.0 mg/kg/injection, schedule: Q04DX003 (ip), vehicle: saline with Tween-80
[11] = endpoint: mean survival time, dose: 100.0 mg/kg/injection, schedule: Q01DX001 (ip), vehicle: saline
[12] = endpoint: mean survival time, dose: 200.0 mg/kg/injection, schedule: Q01DX001 (ip), vehicle: saline
[13] = endpoint: mean survival time, dose: 400.0 mg/kg/injection, schedule: Q01DX001 (ip), vehicle: saline
[14] = endpoint: mean survival time, dose: 400.0 mg/kg/injection, schedule: Q01DX009 (ip), vehicle: saline with Tween-80
[15] = endpoint: mean survival time, dose: 400.0 mg/kg/injection, schedule: Q04DX003 (ip), vehicle: saline with Tween-80
[16] = endpoint: mean survival time, dose: 100.0 mg/kg/injection, schedule: Q01DX001 (ip), vehicle: saline with Tween-80
[17] = endpoint: mean survival time, dose: 200.0 mg/kg/injection, schedule: Q01DX001 (ip), vehicle: saline with Tween-80
[18] = endpoint: mean survival time, dose: 100.0 mg/kg/injection, schedule: Q04DX003 (ip), vehicle: saline
[19] = endpoint: mean survival time, dose: 200.0 mg/kg/injection, schedule: Q04DX003 (ip), vehicle: saline
[20] = endpoint: mean survival time, dose: 12.5 mg/kg/injection, schedule: Q01DX009 (ip), vehicle: water
[21] = endpoint: mean survival time, dose: 25.0 mg/kg/injection, schedule: Q01DX009 (ip), vehicle: water
[22] = endpoint: mean survival time, dose: 100.0 mg/kg/injection, schedule: Q01DX009 (ip), vehicle: saline sonified
[23] = endpoint: mean survival time, dose: 200.0 mg/kg/injection, schedule: Q01DX009 (ip), vehicle: saline sonified
[24] = endpoint: mean survival time, dose: 400.0 mg/kg/injection, schedule: Q01DX009 (ip), vehicle: saline sonified

Measured: T/C

CCC(=O)c1cc2c(c3c1CCCC3)CCCC2
inactive: [1] 104 % of control | endpoint: mean survival time, dose: 50.0 mg/kg/injection, schedule: Q01DX009 (ip), vehicle: other 98 % of control | [2] 104 % of control

CCCCCCCC[n+]1cccc(C(=O)c2ccccc2)c1
inactive: endpoint: mean survival time, dose: 75.0 mg/kg/injection, schedule: Q01DX001 (ip), vehicle: saline 105 % of control

COc1cc(OC)c(OC)cc1/C=C\c1ccc2ccccc2[n+]1C
inactive: [3] 100 % of control | [4] 91 % of control | [5] 104 % of control

CCOS(=O)(=O)c1ccc(Cl)c([N+](=O)[O-])c1
inactive: [3] 100 % of control | [4] 105 % of control | [6] 94 % of control and 100 % of control | [5] 103 % of control

O=C(CNC(=O)Nc1cccc([N+](=O)[O-])c1)N/N=C/c1ccc(F)cc1
inactive: [6] 89 % of control | [7] 93 % of control | [8] 101 % of control

CCOc1ccc(/C=C(/C#N)C(N)=O)cc1
inactive: [9] 97 % of control | [5] 94 % of control | [10] 92 % of control

Cc1ccc(P(=S)(c2ccccc2)c2ccc(C)c3ccccc23)c2ccccc12
inactive: [11] 97 % of control | [12] 91 % of control | [13] 93 % of control

NNC(=O)c1cccc(C(=O)NN)c1
inactive: [7] 96 % of control | [5] 93 % of control | [8] 93 % of control | [10] 95 % of control | [14] 98 % of control | [15] 92 % of control

CC(=O)Nc1sc([N+](=O)[O-])cc1[N+](=O)[O-]
inactive: endpoint: mean survival time, dose: 25.0 mg/kg/injection, schedule: Q04DX003 (ip), vehicle: saline with Tween-80 101 % of control | [9] 108 % of control | [5] 91 % of control and 101 % of control

COc1ccc(N=Nc2sc(N)nc2-c2cccc([N+](=O)[O-])c2)cc1
inactive: [16] 93 % of control | [17] 90 % of control | endpoint: mean survival time, dose: 400.0 mg/kg/injection, schedule: Q01DX001 (ip), vehicle: saline with Tween-80 97 % of control

COc1ccc(C(=O)c2cccc3c2-c2ccccc2C3(c2ccc(OC)c(C)c2)c2ccc(OC)c(C)c2)cc1C
inactive: endpoint: mean survival time, dose: 5.0 mg/kg/injection, schedule: Q01DX001 (ip), vehicle: other 96 % of control | endpoint: mean survival time, dose: 10.0 mg/kg/injection, schedule: Q01DX001 (ip), vehicle: other 88 % of control | endpoint: mean survival time, dose: 40.0 mg/kg/injection, schedule: Q01DX001 (ip), vehicle: other 86 % of control | endpoint: mean survival time, dose: 80.0 mg/kg/injection, schedule: Q01DX001 (ip), vehicle: other 91 % of control

COc1ccc2c(c1)C1(C)C/C(=C\c3ccoc3)C(=O)C(C)C1CC2 (stereo not given)
inactive: [11] 94 % of control | [12] 94 % of control | [13] 102 % of control

Cc1ccccc1N=Nc1ccc(O)cc1
inactive: [6] 105 % of control | [16] 103 % of control | [7] 100 % of control | [17] 92 % of control | [8] 103 % of control

CC(C)(O)/C=C/C(=O)[C@](C)(O)[C@H]1[C@H](O)C[C@@]2(C)[C@@H]3CC=C4[C@@H](C=C(O)C(=O)C4(C)C)[C@]3(C)C(=O)C[C@]12C
inactive: endpoint: median survival time, dose: 0.5 mg/kg/injection, schedule: Q01DX005 (ip), vehicle: water 113 % of control | endpoint: median survival time, dose: 1.0 mg/kg/injection, schedule: Q01DX005 (ip), vehicle: water 110 % of control

Cn1c(=O)c2c(nc(NN)n2C)n(C)c1=O
inactive: endpoint: mean survival time, dose: 12.5 mg/kg/injection, schedule: Q01DX005 (ip), vehicle: distilled water + Tween-80 100 % of control | endpoint: mean survival time, dose: 25.0 mg/kg/injection, schedule: Q01DX005 (ip), vehicle: distilled water + Tween-80 100 % of control | endpoint: mean survival time, dose: 50.0 mg/kg/injection, schedule: Q01DX005 (ip), vehicle: distilled water + Tween-80 103 % of control | endpoint: mean survival time, dose: 100.0 mg/kg/injection, schedule: Q01DX005 (ip), vehicle: distilled water + Tween-80 89 % of control | endpoint: mean survival time, dose: 200.0 mg/kg/injection, schedule: Q01DX005 (ip), vehicle: distilled water + Tween-80 101 % of control

CC1(C)/C(=N/Nc2ccc([N+](=O)[O-])cc2[N+](=O)[O-])C=Cc2ccccc21
inactive: endpoint: mean survival time, dose: 12.5 mg/kg/injection, schedule: Q01DX009 (ip), vehicle: other 105 % of control | [1] 94 % of control | [2] 90 % of control | endpoint: mean survival time, dose: 200.0 mg/kg/injection, schedule: Q01DX009 (ip), vehicle: other 94 % of control

c1ccc([As]2[As](c3ccccc3)[As](c3ccccc3)[As]2c2ccccc2)cc1 (stereo not given)
inactive: endpoint: mean survival time, dose: 5.0 mg/kg/injection, schedule: Q01DX001 (ip), vehicle: saline 101 % of control | endpoint: mean survival time, dose: 10.0 mg/kg/injection, schedule: Q01DX001 (ip), vehicle: saline 108 % of control | endpoint: mean survival time, dose: 20.0 mg/kg/injection, schedule: Q01DX001 (ip), vehicle: saline 111 % of control | endpoint: mean survival time, dose: 40.0 mg/kg/injection, schedule: Q01DX001 (ip), vehicle: saline 113 % of control | endpoint: mean survival time, dose: 80.0 mg/kg/injection, schedule: Q01DX001 (ip), vehicle: saline 119 % of control

Clc1ccc([PH+](c2ccc(Cl)cc2)c2ccc(Cl)cc2)cc1.Clc1ccc([PH+](c2ccc(Cl)cc2)c2ccc(Cl)cc2)cc1.[Cl][Hg][Cl]
inactive: endpoint: mean survival time, dose: 12.5 mg/kg/injection, schedule: Q01DX009 (ip), vehicle: Klucel (hydroxypropylcellulose) (HPC) 96 % of control | endpoint: mean survival time, dose: 50.0 mg/kg/injection, schedule: Q01DX009 (ip), vehicle: Klucel (hydroxypropylcellulose) (HPC) 104 % of control

CC1(C)C([N+](C)(C)C)CS1(=O)=O (stereo not given)
inactive: [11] 105 % of control | [18] 96 % of control | [12] 103 % of control | [19] 101 % of control | [13] 103 % of control | endpoint: mean survival time, dose: 400.0 mg/kg/injection, schedule: Q04DX003 (ip), vehicle: saline 96 % of control

O=C(NCCCl)NC1C(O)OC(CO)C(O)C1O (stereo not given)
inactive: [20] 107 % of control | [21] 107 % of control | endpoint: mean survival time, dose: 50.0 mg/kg/injection, schedule: Q01DX009 (ip), vehicle: water 104 % of control | endpoint: mean survival time, dose: 100.0 mg/kg/injection, schedule: Q01DX009 (ip), vehicle: water 104 % of control | endpoint: mean survival time, dose: 200.0 mg/kg/injection, schedule: Q01DX009 (ip), vehicle: water 105 % of control

Brc1cccc(-n2ccnc2)c1
inactive: [5] 102 % of control | [10] 112 % of control

COC(=N)c1ccc(Cl)cc1
inactive: [5] 97 % of control | [10] 103 % of control | [15] 93 % of control

CC(=O)OC(OC(C)=O)c1ccc([N+](=O)[O-])cc1
inactive: [7] 103 % of control | [5] 105 % of control | [8] 97 % of control | [10] 100 % of control | [14] 97 % of control | [15] 92 % of control

Cc1nc2c(N)nn(C)c2nc1C
inactive: [5] 95 % of control | [10] 101 % of control | [15] 101 % of control

Cc1ccc(C2(C#N)CCCC2)cc1
inactive: [22] 97 % of control | [5] 97 % of control | [23] 97 % of control | [10] 97 % of control | [24] 88 % of control | [15] 97 % of control

Fc1ccc(NCCS)cc1
inactive: [22] 97 % of control | [23] 98 % of control | [24] 103 % of control

COC1OC(CN=[N+]=[N-])C(N=[N+]=[N-])C(OS(C)(=O)=O)C1OS(C)(=O)=O (stereo not given)
inactive: [7] 95 % of control | [8] 95 % of control | [14] 90 % of control

CC(C)(C)CC(C)(C)c1ccc(OCCOc2ccc(S(=O)(=O)O)cc2[N+](=O)[O-])cc1
inactive: [11] 102 % of control | [12] 102 % of control | [13] 98 % of control

O=C(O)CCCCCCC(=O)c1ccccc1
inactive: [7] 98 % of control | [8] 97 % of control | [14] 93 % of control

CC(=O)CC(=O)C1CCC(C(=O)CC(C)=O)CC1 (stereo not given)
inactive: [5] 95 % of control | [10] 91 % of control

CCN(CC)CCCC(C)NCCCCNC(C)CCCN(CC)CC (stereo not given)
inactive: [20] 90 % of control | [21] 92 % of control

O=[N+]([O-])c1ccc(Cl)c(P(=O)(O)c2cc([N+](=O)[O-])ccc2Cl)c1
inactive: endpoint: mean survival time, dose: 50.0 mg/kg/injection, schedule: Q04DX003 (ip), vehicle: saline 100 % of control | [18] 101 % of control | [19] 100 % of control

O=S(=O)(Cl)OC(CCl)C(OS(=O)(=O)Cl)C(OS(=O)(=O)Cl)C(CCl)OS(=O)(=O)Cl (stereo not given)
inactive: [7] 92 % of control | [8] 100 % of control | [14] 100 % of control
